According to patent US20220370416A1, “COMPOUNDS AND METHODS FOR TARGETED DEGRADATION OF KRAS” (Arvinas Operations, Inc., priority 2020, published 2022):

Tests used:
HiBit-KRAS^G12C [1] = target: T1, HiBit-KRAS^G12C (Homo sapiens, UniProt P01116, G12C); experiment: HiBit degradation assay in SW1573 HiBit-KRas^G12C cells; type: cell-based; design: expressed in transfected cells; host or cells: SW1573 (clone E6), modified pcDNA3.1 vector, TK promoter; details: 0.5% DMSO, 24 hours; for DC50: read-out: KRas^G12C-HiBiT (SW1573; 0.5% DMSO) IC50***
T1 sequence (P01116 1-186 isoform P01116-2 G12C limits assumed): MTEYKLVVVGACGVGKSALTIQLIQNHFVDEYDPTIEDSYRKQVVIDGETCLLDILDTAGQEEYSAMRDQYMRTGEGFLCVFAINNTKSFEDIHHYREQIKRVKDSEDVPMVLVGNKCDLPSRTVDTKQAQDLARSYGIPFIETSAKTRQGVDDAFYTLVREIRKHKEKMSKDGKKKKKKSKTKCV
Summary of the method: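 HiBit-KRAS G12C degradation was measured after a 24 h compound exposure (titrated 10 μM–20 nM) in engineered SW1573 cells. Lytic HiBit luminescence, expressed relative to DMSO controls, yielded DC50 and Dmax from 4-parameter fits. Concentrations causing ≥50% loss in alamar blue viability were omitted as cytotoxic.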

HiBit-KRAS^G12C [2] = target: T1, HiBit-KRAS^G12C; experiment: HiBit degradation assay in MiaPaCa-2 HiBit-KRas^G12C cells; type: cell-based; details: 0.5% DMSO, 24 hours; for Dmax: maximum degradation; for DC50: read-out: KRas^G12C-HiBiT (MiaPaCa; 0.5% DMSO) IC50
Summary of the method: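 DC50 and Dmax come from 4-parameter fits of DMSO-normalized HiBit luminescence after 24 hours' exposure at 37° C to 10 μM–20 nM compound in 0.1% or 0.5% DMSO. Cells: MiaPaCa-2 carrying one endogenously HiBit-tagged KRAS^G12C allele; concentrations causing ≥50% […] viability loss (alamar blue) excluded.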

[3] = SW1573, SW1573 HiBit-KRas^G12C, read-out: KRas^G12C-HiBiT (SW1573; 0.5% DMSO) Dmax**
[4] = MIA PaCa-2, MiaPaCa-2 HiBit-KRas^G12C cells, read-out: KRas^G12C-HiBiT (MiaPaCa; 0.5% DMSO) DMax
[5] = MiaPaCa-2 HiBit-KRas^G12C cells

## C=CC(=O)N1CCN(c2nc(OCCN3CCC(COCC(=O)N[C@H](C(=O)N4C[C@H](O)C[C@H]4C(=O)N[C@@H](C)c4ccc(-c5scnc5C)cc4)C(C)(C)C)CC3)nc3c(F)c(-c4nc(N)cc(C)c4C(F)(F)F)c(Cl)cc23)C[C@@H]1CC#N [Compound 115, (2S,4R)-1-[(2S)-2-[2-({1-[2-({7-[6-amino-4-methyl-3-(trifluoromethyl)pyridin-2-yl]-6-chloro-4-[(3S)-3-(cyanomethyl)-4-(prop-2-enoyl)piperazin-1-yl]-8-fluoroquinazolin-2-yl}oxy)ethyl]piperidin-4-yl}methoxy)acetamido]-3,3-dimethylbutanoyl]-4-hydroxy-N-[(1S)-1-[4-(4-methyl-1,3-thiazol-5-yl)phenyl]ethyl]pyrrolidine-2-carboxamide]
HiBit-KRAS^G12C [1]; [3]
  Dmax: > 70%
HiBit-KRAS^G12C [1]; SW1573 HiBit-KRas^G12C
  DC50: 100 to 1000 nM
HiBit-KRAS^G12C [2]; [4]
  Dmax: > 70%
HiBit-KRAS^G12C [2]; [5]
  DC50: 100 to 1000 nM

## C=CC(=O)N1CCN(c2nc(OCCN3CCC(COCC(=O)N[C@H](C(=O)N4C[C@H](O)C[C@H]4C(=O)N[C@@H](C)c4ccc(-c5scnc5C)cc4)C(C)(C)C)CC3)nc3c(F)c(-c4cc(O)cc5ccccc45)c(Cl)cc23)[C@@H](C)C1 [Compound 119, (2S,4R)-1-[(2S)-2-(2-{[1-(2-{[6-chloro-8-fluoro-7-(3-hydroxynaphthalen-1-yl)-4-[(2S)-2-methyl-4-(prop-2-enoyl)piperazin-1-yl]quinazolin-2-yl]oxy}ethyl)piperidin-4-yl]methoxy}acetamido)-3,3-dimethylbutanoyl]-4-hydroxy-N-[(1S)-1-[4-(4-methyl-1,3-thiazol-5-yl)phenyl]ethyl]pyrrolidine-2-carboxamide]
HiBit-KRAS^G12C [1]; [3]
  Dmax: > 70%
HiBit-KRAS^G12C [1]; SW1573 HiBit-KRas^G12C
  DC50: 100 to 1000 nM
HiBit-KRAS^G12C [2]; [4]
  Dmax: > 70%
HiBit-KRAS^G12C [2]; [5]
  DC50: 100 to 1000 nM

## C=CC(=O)N1CCN(c2nc(OCCN3CCC(F)(CN(C)CC(=O)N[C@H](C(=O)N4C[C@H](O)C[C@H]4C(=O)N[C@@H](C)c4ccc(-c5scnc5C)cc4)C(C)(C)C)CC3)nc3c(F)c(-c4cc(O)cc5ccccc45)c(Cl)cc23)C[C@@H]1CC#N [Compound 120, (2S,4R)-1-[(2S)-2-{2-[({1-[2-({6-chloro-4-[(3S)-3-(cyanomethyl)-4-(prop-2-enoyl)piperazin-1-yl]-8-fluoro-7-(3-hydroxynaphthalen-1-yl)quinazolin-2-yl}oxy)ethyl]-4-fluoropiperidin-4-yl}methyl)(methyl)amino]acetamido}-3,3-dimethylbutanoyl]-4-hydroxy-N-[(1S)-1-[4-(4-methyl-1,3-thiazol-5-yl)phenyl]ethyl]pyrrolidine-2-carboxamide]
HiBit-KRAS^G12C [1]; SW1573, read-out: KRas^G12C-HiBiT (SW1573; 0.5% DMSO) Dmax**, SW1573 HiBit-KRas^G12C
  Dmax: 35 to 70%
HiBit-KRAS^G12C [1]; SW1573 HiBit-KRas^G12C
  DC50: 100 to 1000 nM
HiBit-KRAS^G12C [2]; MIA PaCa-2, read-out: KRas^G12C-HiBiT (MiaPaCa; 0.5% DMSO) DMax, MiaPaCa-2 HiBit-KRas^G12C cells
  Dmax: 35 to 70%
HiBit-KRAS^G12C [2]; [5]
  DC50: 100 to 1000 nM

## C=CC(=O)N1CCN(c2nc(O[C@H]3CCC[C@@H]3N3CCC(COCC(=O)N[C@H](C(=O)N4C[C@H](O)C[C@H]4C(=O)N[C@@H](C)c4ccc(-c5scnc5C)cc4)C(C)(C)C)CC3)nc3c(F)c(-c4cc(O)cc5ccccc45)c(Cl)cc23)C[C@@H]1CC#N [Compound 127, (2S,4R)-1-[(2S)-2-[2-({1-[(1S,2S)-2-({6-chloro-4-[(3S)-3-(cyanomethyl)-4-(prop-2-enoyl)piperazin-1-yl]-8-fluoro-7-(3-hydroxynaphthalen-1-yl)quinazolin-2-yl}oxy)cyclopentyl]piperidin-4-yl}methoxy)acetamido]-3,3-dimethylbutanoyl]-4-hydroxy-N-[(1S)-1-[4-(4-methyl-1,3-thiazol-5-yl)phenyl]ethyl]pyrrolidine-2-carboxamide]
HiBit-KRAS^G12C [1]; [3]
  Dmax: 35 to 70%
HiBit-KRAS^G12C [1]; SW1573 HiBit-KRas^G12C
  DC50: 100 to 1000 nM
HiBit-KRAS^G12C [2]; [4]
  Dmax: 35 to 70%
HiBit-KRAS^G12C [2]; [5]
  DC50: 100 to 1000 nM
